Results as given in ChEMBL document CHEMBL1759868, “Folate pro-drug of cystamine as an enhanced treatment for nephropathic cystinosis” (Bioorg Med Chem Lett, 2011).
Calls of active or inactive are those of the source. The calls are words filed in the database; no cut-off is given here.

Columns and labels:
Fibroblast = experiment: Decrease in intracellular cystine level in human cystinotic Fibroblast at 50 uM for 24 hrs by thiol assay; format: functional, cell-based
[1] = Cytotoxicity against human cystinotic Fibroblast at 50 uM for 72 hrs by Alamar blue assay; format: cell-based

Compound | Activity (Fibroblast) | Activity [1]
Cl.NCCSSCCNC(=O)CC[C@H](NC(=O)c1ccc(NCc2cnc3nc(N)nc(O)c3n2)cc1)C(=O)NCCSSCCN | Active | Non-toxic
NCCS [CYSTEAMINE] | – | Non-toxic
